Among the data in patent US12545685B2 (Daiichi Sankyo Company, Limited, priority 2011, dated 2026) are IC50 values, retold here.

In general, IC50 refers to the concentration at which inhibition is half-maximal. A high value points to a need for much substance.

T1 sequence (Q00987 25-108 L33E): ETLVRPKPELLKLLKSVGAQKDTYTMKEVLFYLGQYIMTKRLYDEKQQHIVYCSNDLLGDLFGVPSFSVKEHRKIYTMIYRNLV

This assay concerns the target T1, Mdm2/p53 binding (GST-Mdm2 / His-p53) (Homo sapiens, UniProt Q00987, L33E).
T1 construct: Mdm2 partial protein having Mdm2 amino acids at positions 25 to 108
Nature of the assay: Mdm2/p53 binding assay (HTRF, His-p53 and GST-Mdm2). As to conditions: His-p53 (aa 1-132) and GST-Mdm2 (aa 25-108, L33E) 6.25 nM each; 25°C, 1 hour; values given as ranges. The essentials: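 His-p53 (aa 1–132) and GST-Mdm2 (aa 25–108, L33E) were prepared at 6.25 nM each in the protein dilution (20 mM HEPES pH 7.4, 150 mM NaCl, 0.1% BSA). Compound in 10% DMSO buffer and XL665 anti-His/Eu anti-GST antibodies (KF buffer) were added, with 1 h at 25 °C. The 665/620 nm TR-FRET ratio gave T/C and a sigmoid-fitted IC50.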
For orientation: TR-FRET usually uses a lanthanide donor and a delayed reading to cut background.
As for `O=C(N[C@H]1CC[C@H](c2nnco2)CC1)[C@@H]1NC2(CC(CF)(CF)C2)[C@@]2(C(=O)Nc3cc(Cl)ccc32)[C@H]1c1cccc(Cl)c1F` [Example 123, (3′R, 4″S,5′R)-6′-chloro-4′-(3-chloro-2-fluorophenyl)-3,3-bis(fluoromethyl)-N-[trans-4-(1,3,4-oxadiazol-2-yl)cyclohexyl]-2″-oxo-1″,2″-dihydrodispiro[cyclobutane-1,2′-pyrrolidine-3′,3″-indole]-5′-carboxamide], the 50% inhibitory concentration (IC50) lay in the range of 50 to 100 nM.
With `CN(C)C(=O)[C@@H]1CC[C@@H](NC(=O)[C@@H]2NC3(CC(CF)(CF)C3)[C@@]3(C(=O)Nc4cc(Cl)ccc43)[C@H]2c2cccc(Cl)c2F)CO1` [Example 124, (3′R, 4′S,5′R)-6″-chloro-4′-(3-chloro-2-fluorophenyl)-N-[(3R,6S)-6-(dimethylcarbamoyl)tetrahydro-2H-pyran-3-yl]-3,3-bis(fluoromethyl)-2″-oxo-1″,2″-dihydrodispiro[cyclobutane-1,2′-pyrrolidine-3′,3″-indole]-5′-carboxamide], the IC50 lay in the range of 1 to 50 nM.
The compound `CCN(C)C(=O)[C@@H]1CC[C@@H](NC(=O)[C@@H]2NC3(CCC(C)(C)CC3)[C@@]3(C(=O)Nc4cc(Cl)ccc43)[C@H]2c2ccnc(Cl)c2F)CO1` [Example 125, (3′R, 4′S,5′R)-6″-chloro-4′-(2-chloro-3-fluoropyridin-4-yl)-N-{(3R,6S)-6-[ethyl(methyl)carbamoyl]tetrahydro-2H-pyran-3-yl}-4,4-dimethyl-2″-oxo-1″,2″-dihydrodispiro[cyclohexane-1,2′-pyrrolidine-3′,3″-indole]-5′-carboxamide] returned an IC50 of 1 to 50 nM.
The figure for `CC1(C)CCC2(CC1)N[C@@H](C(=O)N[C@@H]1CC[C@@H](C(=O)NCCF)OC1)[C@H](c1ccnc(Cl)c1F)[C@]21C(=O)Nc2cc(Cl)ccc21` [Example 126, (3′R, 4′S,5′R)-6″-chloro-4′-(2-chloro-3-fluoropyridin-4-yl)-N-{(3R,6S)-6-[{2-fluoroethyl}carbamoyl]tetrahydro-2H-pyran-3-yl}-4,4-dimethyl-2″-oxo-1″,2″-dihydrodispiro[cyclohexane-1,2′-pyrrolidine-3′,3″-indole]-5′-carboxamide] is 1 to 50 nM.
Consider `COCCN(C)C(=O)[C@@H]1CC[C@@H](NC(=O)[C@@H]2NC3(CCC(C)(C)CC3)[C@@]3(C(=O)Nc4cc(Cl)ccc43)[C@H]2c2ccnc(Cl)c2F)CO1` [Example 127, (3′R, 4′S,5′R)-6″-chloro-4′-(2-chloro-3-fluoropyridin-4-yl)-N-{(3R,6S)-6-[(2-methoxyethyl)(methyl)carbamoyl]tetrahydro-2H-pyran-3-yl}-4,4-dimethyl-2″-oxo-1″,2″=dihydrodispiro[cyclohexane-1,2′-pyrrolidine-3′,3″-indole]-5′-carboxamide], for which the IC50 was in the range of 1 to 50 nM.
For `COCCNC(=O)[C@@H]1CC[C@@H](NC(=O)[C@@H]2NC3(CCC(C)(C)CC3)[C@@]3(C(=O)Nc4cc(Cl)ccc43)[C@H]2c2ccnc(Cl)c2F)CO1` [Example 128, (3′R, 4′S,5′R)-6″-chloro-4′-(2-chloro-3-fluoropyridin-4-yl)-N-{(3R,6S)-6-[(2-methoxyethyl)carbamoyl]tetrahydro-2H-pyran-3-yl}-4,4-dimethyl-2″-oxo-1″,2″-dihydrodispiro[cyclohexane-1,2′-pyrrolidine-3′,3″-indole]-5′-carboxamide], the IC50 lay within 1 to 50 nM.
The figure for `CO[C@@H]1C[C@@H](NC(=O)[C@@H]2NC3(CC(CF)(CF)C3)[C@@]3(C(=O)Nc4cc(Cl)ccc43)[C@H]2c2cccc(Cl)c2F)CO[C@@H]1CO` [Example 129, (3′R,4′S,5′R)-6″-chloro-4′-(3-chloro-2-fluorophenyl)-3,3-bis(fluoromethyl)-N-[(3R,5R,6R)-6-(hydroxymethyl)-5-methoxytetrahydro-2H-pyran-3-yl]-2″-oxo-1″,2″-dihydrodispiro[cyclobutane-1,2′-pyrrolidine-3′,3″-indole]-5′-carboxamide] is 1 to 50 nM.
The figure for `CC1(C)CCC2(CC1)N[C@@H](C(=O)N[C@H]1CC[C@H](c3nnc(CO)o3)CC1)[C@H](c1ccnc(Cl)c1F)[C@]21C(=O)Nc2cc(Cl)ccc21` [Example 130, (3′R, 4′S,5′R)-6″-chloro-4′-(2-chloro-3-fluoropyridin-4-yl)-N-{trans-4-[5-(hydroxymethyl)-1,3,4-oxadiazol-2-yl]cyclohexyl}-4,4-dimethyl-2″-oxo-1″,2″-dihydrodispiro[cyclohexane-1,2′-pyrrolidine-3′,3″-indole]-5′-carboxamide] is 1 to 50 nM; for `O=C(N[C@H]1CC[C@H](c2nnc(CO)o2)CC1)[C@@H]1NC2(CC(CF)(CF)C2)[C@@]2(C(=O)Nc3cc(Cl)ccc32)[C@H]1c1cccc(Cl)c1F` [Example 131, (3′R, 4′S,5′R)-6″-chloro-4′-(3-chloro-2-fluorophenyl)-3,3-bis(fluoromethyl)-N-[trans-4-[5-(hydroxymethyl)-1,3,4-oxadiazol-2-yl]cyclohexyl]-2″-oxo-1″,2″-dihydrodispiro[cyclobutane-1,2′-pyrrolidine-3′,3″-indole]-5′-carboxamide] it is 50 to 100 nM.
The compound `C[C@@H](O)c1nnc([C@H]2CC[C@H](NC(=O)[C@@H]3NC4(CCC(C)(C)CC4)[C@@]4(C(=O)Nc5cc(Cl)ccc54)[C@H]3c3ccnc(Cl)c3F)CC2)o1` [Example 132, (3′R, 4′S, S′R)-6″-chloro-4′-(2-chloro-3-fluoropyridin-4-yl)-N-(trans-4-{5-[(1R)-1-hydroxyethyl]-1,3,4-oxadiazol-2-yl}cyclohexyl)-4,4-dimethyl-2″-oxo-1″,2″-dihydrodispiro[cyclohexane-1,2′-pyrrolidine-3′,3″-indole]-5′-carboxamide] showed an IC50 of 50 to 100 nM.
As to `COC[C@@H]1CC[C@@H](NC(=O)[C@@H]2NC3(CCC(C)(C)CC3)[C@@]3(C(=O)Nc4cc(Cl)ccc43)[C@H]2c2ccnc(Cl)c2F)CO1` [Example 133, (3′R, 4′S,5′R)-6″-chloro-4′-(2-chloro-3-fluoropyridin-4-yl)-N-[(3R,6S)-6-(methoxymethyl)tetrahydro-2H-pyran-3-yl]-4,4-dimethyl-2″-oxo-1″,2″-dihydrodispiro[cyclohexane-1,2′-pyrrolidine-3′,3″-indole]-5′-carboxamide], the IC50 was in the range of 50 to 100 nM.
The figure for `NC(=O)[C@H]1C[C@H](NC(=O)[C@@H]2NC3(CC(CF)(CF)C3)[C@@]3(C(=O)Nc4cc(Cl)ccc43)[C@H]2c2cccc(Cl)c2F)C1` [Example 134, (3′R, 4′S,5′R)—N-(trans-3-carbamoylcyclobutyl)-6″-chloro-4′-(3-chloro-2-fluorophenyl)-3,3-bis(fluoromethyl)-2″-oxo-1″,2″-dihydrodispiro[cyclobutane-1,2′-pyrrolidine-3′,3″-indole]-5′-carboxamide] is 1 to 50 nM; for `CC(C)(O)[C@@H]1CC[C@@H](NC(=O)[C@@H]2NC3(CC(CF)(CF)C3)[C@@]3(C(=O)Nc4cc(Cl)ccc43)[C@H]2c2cccc(Cl)c2F)CO1` [Example 135, (3′R, 4′S,5′R)-6″-chloro-4′-(3-chloro-2-fluorophenyl)-3,3-bis(fluoromethyl)-N-[(3R,6S)-6-(1-hydroxy-1-methylethyl)tetrahydro-2H-pyran-3-yl]-2″-oxo-1″,2″-dihydrodispiro[cyclobutane-1,2′-pyrrolidine-3′,3″-indole]-5′-carboxamide] it is 100 to 500 nM; for `O=C(N[C@@H]1CC[C@@H](c2nnco2)OC1)[C@@H]1NC2(CC(CF)(CF)C2)[C@@]2(C(=O)Nc3cc(Cl)ccc32)[C@H]1c1cccc(Cl)c1F` [Example 136, (3′R, 4′S,5′R)-6″-chloro-4′-(3-chloro-2-fluorophenyl)-3,3-bis(fluoromethyl)-N-[(3R,6S)-6-(1,3,4-oxadiazol-2-yl)tetrahydro-2H-pyran-3-yl]-2″-oxo-1″,2″-dihydrodispiro[cyclobutane-1,2′-pyrrolidine-3′,3″-indole]-5′-carboxamide] it is 1 to 50 nM.
`O=C(NC1CCOCC1)[C@@H]1CC[C@@H](NC(=O)[C@@H]2NC3(CC(CF)(CF)C3)[C@@]3(C(=O)Nc4cc(Cl)ccc43)[C@H]2c2cccc(Cl)c2F)CO1` [Example 137, (3′R, 4′S,5′R)-6″-chloro-4′-(3-chloro-2-fluorophenyl)-3,3-bis(fluoromethyl)-2″-oxo-N-[(3R,6S)-6-(tetrahydro-2H-pyran-4-ylcarbamoyl)tetrahydro-2H-pyran-3-yl]-1″,2″-dihydrodispiro[cyclobutane-1,2′-pyrrolidine-3′,3″-indole]-5′-carboxamide] yielded an IC50 of 50 to 100 nM.
`O=C(NCCF)[C@@H]1CC[C@@H](NC(=O)[C@@H]2NC3(CC(CF)(CF)C3)[C@@]3(C(=O)Nc4cc(Cl)ccc43)[C@H]2c2cccc(Cl)c2F)CO1` [Example 138, (3′R, 4′S,5′R)-6″-chloro-4′-(3-chloro-2-fluorophenyl)-N-{(3R,6S)-6-[(2-fluoroethyl)carbamoyl]tetrahydro-2H-pyran-3-yl}-3,3-bis(fluoromethyl)-2″-oxo-1″,2″-dihydrodispiro[cyclobutane-1,2′-pyrrolidine-3′,3″-indole]-5′-carboxamide] yielded an IC50 of 50 to 100 nM.
As for `COCCN(C)C(=O)[C@@H]1CC[C@@H](NC(=O)[C@@H]2NC3(CC(CF)(CF)C3)[C@@]3(C(=O)Nc4cc(Cl)ccc43)[C@H]2c2cccc(Cl)c2F)CO1` [Example 139, (3′R, 4′S,5′R)-6″-chloro-4′-(3-chloro-2-fluorophenyl)-3,3-bis(fluoromethyl)-N-[(3R,6S)-6-[(2-methoxyethyl)(methyl)carbamoyl]tetrahydro-2H-pyran-3-yl]-2″-oxo-1″,2″-dihydrodispiro[cyclobutane-1,2′-pyrrolidine-3′,3″-indole]-5′-carboxamide], the IC50 lay within 1 to 50 nM.
